Results from patent US4649156A, “6-nitroprostaglandin derivatives” (Teijin Limited, priority 1982, dated 1987).
Converted amounts (≈) assume the structure as drawn.

What was measured:
platelet aggregation = experiment: In vitro inhibitory activity of platelet aggregation (ADP-induced, platelet-rich plasma); type: cell-based, rabbit (Japanese domestic white male rabbits); settings: Oryctolagus cuniculus, rabbit PRP, 10 μM (final) ADP, pre-incubated at 37° C. for 2 minutes, read-out: IC50 (minimum concentration of the drug which inhibited more than 50% of platelet aggregation)
Procedure: The in vitro platelet aggregation imhibiting activity of the compounds of the invention were examined by using rabbits. Blood was withdrawn from the ear vein of Japanese domestic white male rabbits weighing 2.5 to 3.5 kg. A mixture of a 3.8% trisodium citrate solution and the blood in a ratio of 1:9 was centrifuged at a speed of 1000 rpm for 10 minutes. The upper layer was separated as platelet-rich plasma (PRP). The lower layer was further centrifuged at a speed of 28000 rpm for 10 minutes. The upper layer was separated as platelet-poor plasma (PPP). The number of platelets was adjusted to 6×10^5 /μl to 7×10^5 […] by diluting the PRP with PPP. 25 microliters of the test compounds prepared as shown below was added in an amount of 25 to 250 microliters of PRP after the adjustment, and the mixture was pre-incubated at 37° C. for 2 minutes, and then 10 μM (final) of ADP was added. By using an aggregometer, changes in transmission were recorded.
The drug was dissolved in ethanol to a concentration of 10 mg/ml, and successively diluted with phosphate buffer (pH 7.4) prior to use.
The rate of inhibition of platelet aggregation was determined from the following equation. [formula] To : the transmittance of the system containing the phosphate buffer, T: The transmittance of the system to which the test drug was added. […]

[1] = system: blood pressure and heart beat rate of rats; experiment: Measurement of the hypotensive activity (blood pressure and heart beat rate, i.v., anesthetized rats); type: in vivo, rat (male wister rats); settings: Rattus norvegicus, iv, urethane/α-chloralose anesthesia; for ED10: read-out: H-ED10 (dosage which caused a 10% increase of the heart rate); for ED20: read-out: P-ED20 (dosage which caused a 20% lowering of the mean blood pressure)
Procedure: Measurement of the Hypotensive Activity
The actions of the 6-nitroprostaglandin E1 derivatives of the invention on the blood pressure and heart beat rate of rats were examined by intravenous injection under anesthesia.
Male wister rats weighing about 250 g were used. Urethane (500 mg/kg) and α-chloralose (100 mg/kg) were intraperitoneally administered to the rats. The rats were anesthetized and fixed in place.
Each of the test compounds was dissolved in a small amount of ethanol and diluted with physiological saline to adjust the final ethanol concentration to not more than 5%. The solution was intravenously injected into the rats through a catheter inserted into the femoral vein.
The blood pressure of the rats were measured by a pressure transducer through a catheter inserted into the carotid artery of the rats. The heart beat rate was determined from the blood pressure pulse.
The action of the test compound on the blood pressure was expressed as the dosage (p-EDz20, μg/kg) of the test compound which caused a 20% lowering of the mean blood pressure before administration of the compound. The action of the test compound on the heart rate was expressed as the dosage (H-ED10, μg/kg) of the test compound which caused a 10% increase of the heart rate from the heart beat rate before administration of the test compound.

indomethacin ulcer = experiment: Measurement of inhibitory activity on indomethacin ulcer; type: in vivo, rat (wistar-strain male rats); settings: indomethacin 20 mg/kg oral, n=8
Procedure: Seven week-oil wistar-strain male rats (body weight 200 to 220 g) were fasted for 24 hours but water was provided freely, and then used in the following experiment.
Each of the test compounds suspended in phosphate Buffers (pH 7.4) was orally administered to the rats, and 30 minutes later, indomethacin was orally administered in a dose of 20 mg/kg. Six hours later, the animals were sacrificed. The abdomen was cut open, and the stomach was removed. 1% Even's blue was injected in an amount of 0.5 ml/rat into the rats through the tail vein under ether anesthesia 10 minutes before sacrificing.
12 ml of a 1% formalin was injected into the stomach and the stomach was further dipped in 1% formaline for about 10 minutes for the fixation. The stomach was cut open on the side of the greater curvature, and spread on a glass plate. The lengths of ulcers generated in the glandular stomach were measured by using a solid microscope. The sum of the lengths of the ulcers for each nimal was used as the ulcer index. The ulcer inhibiting ratio of the test compound was calculated in accordance with the following equation. [formula]
The control group was given phosphate buffer saline (pH 7.4) indomethacin alone.

Row | IC50 (platelet aggregation) | SMILES | ED10 [1] | ED20 [1] | Inhibition (ulcer inhibiting ratio) (indomethacin ulcer; 3 μg/kg oral) | Ulcer index (indomethacin ulcer; 3 μg/kg oral) | Inhibition (ulcer inhibiting ratio) (indomethacin ulcer; 10 μg/kg oral) | Ulcer index (indomethacin ulcer; 10 μg/kg oral) | Inhibition (ulcer inhibiting ratio) (indomethacin ulcer; 30 μg/kg oral) | Ulcer index (indomethacin ulcer; 30 μg/kg oral, **P < 0.01)
1 | 0.017 µg/mL (≈ 0.0385 µM) | CCCC[C@H](C)C[C@H](O)/C=C/[C@H]1[C@H](O)CC(=O)[C@@H]1CC(CCCCC(=O)OC)[N+](=O)[O-] (stereo partly drawn) [17(S),20-dimethyl-6-nitroprostaglandin E1 methyl ester] | > 0.01 mg/kg | 0.0004 mg/kg | 12.6% | 12.5 ± 3.2 mm | 51.0% | 7.0 ± 1.8 mm | 80.4% | 2.8 ± 1.2 mm
2 | 4.5 µg/mL (≈ 10.9 µM) | CCCCC[C@H](O)/C=C/[C@H]1[C@H](O)CC(=O)[C@@H]1CC(CCCCC(=O)OC)[N+](=O)[O-] (stereo partly drawn) [6-nitroprostaglandin E1 methyl ester] | > 0.01 mg/kg | 0.01 mg/kg | – | – | – | – | – | –
